These results are taken from publication PMC8838415, “Discovery of Novel Pleuromutilin Derivatives as Potent Antibacterial Agents for the Treatment of MRSA Infection” (Molecules, 2022).

One data set concerns S. aureus (ATCC 29213). Kind of data set: MIC and MBC, broth dilution, S. aureus ATCC 29213. In kind it is cell-based. Conditions: Staphylococcus aureus, ATCC29213. The method in brief:
(§1)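 Compounds, in 2.5% tween-80/2.5% DMSO, serially diluted in MH broth over 32–0.01 µg/mL with 5 × 10^5 CFU/mL inoculum, triplicates, 22–26 h at 37 °C; MIC = lowest concentration with no visible growth. MBC from plating non-turbid wells on MH agar, further 22–26 h at 37 °C.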

A further data set has as its system S. aureus (AD3). Kind of data set: MIC and MBC, broth dilution, S. aureus AD3. To be noted: Staphylococcus aureus; S. aureus AD3 (clinical strain). Format: cell-based. The method in brief: as §1
In another data set the test system is S. aureus (144). Kind of data set: MIC and MBC, broth dilution, S. aureus 144. Format: cell-based. To be noted: Staphylococcus aureus; S. aureus 144 (clinical strain). The method, boiled down:
as §1
Background: In broth dilution the organism is exposed to a series of concentrations in liquid medium.

The test system of a further data set is MRSA. Kind of data set: Neutropenic murine thigh infection model. Format: in vivo, mice. Here is the method: The neutropenic murine thigh infection model experiment was performed as described in the literature. Six-week-old SPF-ICR female mice weighing 24–28 g were used for this study. The mice were injected with cyclophosphamide (Mead Johnson Pharmaceuticals, Evansville, Indiana—IN, USA) at a dose of 150 mg/kg 4 days and at a dose of 100 mg/kg 1 day before the experiment to reduce neutrophils and achieve immunosuppression (<0.1 × 10^9/L). A total of 0.1 mL MH broth (MRSA concentration approximately 10^7 CFU/mL) was injected into the posterior thigh of mice to establish the infection model. After the thighs of the mice were infected for 2 h, these mice were randomly divided into 3 groups (3 per group). […] A total of 24 h after the completion of the drug, the mice were euthanized and their thigh tissues were collected. Then, their thigh tissues were weighed and homogenized, respectively, in 3 mL of iced sterile saline. Tissue homogenate was serially diluted 10-fold and plated on MH agar. The resulting bacterial colonies were determined after incubation for 24 h.

The subject of the next data set is MRSA ATCC 43300. Description: Post antibiotic effect (PAE).
A further data set has as its target CYP3A4 (Homo sapiens, UniProt P08684). Kind of data set: Human liver microsomal CYP3A4 enzyme inhibition. In kind it is in vitro ADME. Set-up: from tissue; host or cells: human liver microsomes. Conditions: human liver microsomes, testosterone substrate. The procedure:
The inhibitory effect of compound 9 on CYP3A4 was evaluated according to previous work. The experiments were performed in 96-well plates with a final incubation volume of 100 µL per well. A total of 20 µL of compound 9 was added to 96-well plates, with final concentrations of 0.25, 0.5, 1, 5, 10, and 50 µM. Then, 40 µL of human liver microsomes (final concentration of human liver microsomes was 0.2 mg/mL) and 20 µL of probe substrates (final concentration of testosterone was 20 μmol/L) in 0.1 M Tris (pH = 7.4) were added. After preincubation at 37 °C for 5 min, the reaction started with the addition of 20 µL of NADPH (final concentration is 1 mmol/L). Then, the plate was incubated at 37 °C for 5 min, and then 100 μL acetonitrile (with loratadine used as an internal standard) was added to terminate the reaction. After the reactions were completed, the plates were centrifuged and the supernatants were analyzed for the loratadine and probe substrates testosterone by LC-MS/MS.
(In general: Liver microsomes are a subcellular fraction often used to study metabolism.)

Converted amounts (≈) assume the structure as drawn.

Sequence of CYP3A4 (P08684 whole entry): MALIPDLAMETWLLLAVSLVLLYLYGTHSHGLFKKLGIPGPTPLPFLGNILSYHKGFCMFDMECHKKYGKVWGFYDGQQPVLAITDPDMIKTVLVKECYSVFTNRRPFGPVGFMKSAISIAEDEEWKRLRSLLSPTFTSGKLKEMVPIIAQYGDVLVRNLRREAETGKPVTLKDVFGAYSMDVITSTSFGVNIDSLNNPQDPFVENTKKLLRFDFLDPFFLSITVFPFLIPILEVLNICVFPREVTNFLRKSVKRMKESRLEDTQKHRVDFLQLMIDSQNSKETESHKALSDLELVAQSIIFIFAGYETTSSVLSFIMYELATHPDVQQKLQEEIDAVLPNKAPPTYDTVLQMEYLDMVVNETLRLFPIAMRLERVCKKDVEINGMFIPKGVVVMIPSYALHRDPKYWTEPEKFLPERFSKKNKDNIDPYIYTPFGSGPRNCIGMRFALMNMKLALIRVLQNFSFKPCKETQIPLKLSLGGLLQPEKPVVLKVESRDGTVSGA
Procedure for MRSA ATCC 43300: By diluting with the preheated MH broth 1000 times, the compound was removed from the sample. […] The samples were diluted decuple with sterile saline and plated onto the preheated MH agar plates. […] The PAE value was calculated by the equation (PAE = TA – TC) and presented after an hour.

A word on the MBC: it is the smallest concentration meeting the test's criterion for killing. By MIC is commonly meant the smallest concentration in the dilution series that meets the test's criterion for growth inhibition. The term melting point denotes the temperature, or range, at which the solid turns liquid. A word on the IC50: it is the point on the concentration scale where inhibition reaches its midpoint. `C=C[C@]1(C)C[C@@H](OC(=O)CNc2ccc(F)cc2)[C@]2(C)[C@H](C)CC[C@]3(CCC(=O)[C@H]32)[C@@H](C)[C@@H]1O` [Compound 9, 22-(4-Fluoroanilineyl)-22-deoxypleuromutilin] yielded a melting point of 91 to 93 °C. Also, in the data set with S. aureus (ATCC 29213), the minimal bactericidal concentration (MBC) is 0.5 mg/L (≈ 1.06 µM) and the MIC came out at 0.25 mg/L (≈ 0.53 µM). Further, in the data set on S. aureus (AD3), the MBC came out at 0.5 mg/L (≈ 1.06 µM) and the minimum inhibitory concentration (MIC) worked out at 0.12 mg/L (≈ 0.254 µM). In the data set on S. aureus (144), this molecule had a minimal bactericidal concentration (MBC) of 1 mg/L (≈ 2.12 µM) and a minimal inhibitory concentration (MIC) of 0.5 mg/L (≈ 1.06 µM). Further, in the data set with MRSA (20 mg/kg each, difference to tiamulin group), the “reduction of MRSA load in thigh compared with tiamulin” value is recorded as ~ 0.7 log10 CFU/mL. The “reduction of MRSA load in thigh” value in the data set on MRSA (20 mg/kg intravenously, 24 h, compared to the no-drug control group) is reported as ~ 1.3 log10 CFU/mL. In the data set on MRSA ATCC 43300 (exposure to 2× MIC for 2 h), this molecule had a PAE of 1.54 h. In addition, in the data set with MRSA ATCC 43300 (exposure to 4× MIC for 2 h), the PAE was determined as 1.71 h. This molecule also had an IC50 at CYP3A4 of 6.19 µM. On CYP3A4 (converted with MW), this molecule gave an IC50 of 6.19 µM.
